Here are results for three compounds from patent US20100210735A1, “Modulating the Activity of Nuclear Receptors in Order to Treat Hypoxia-Related Disorders” (UNIVERSITY OF FLORIDA RESEARCH FOUNDATION, INC., priority 2007, published 2010).

Data set [1] concerns HIF-dependent reporter (HRE-Luc). As to the kind of experiment: HIF-dependent luciferase reporter (HRE-Luc) assay in SKBR3 cells. It is filed as cell-based, human. Particulars: DP (100 uM), DES (50 uM) or 4HT (10 uM). How it is done:
All human cancer cells were maintained in the following basal media (Invitrogen) supplemented with 10% fetal bovine serum: breast cancer cell line MDA-MB-435 in DMEM/F12, melanoma WM266 cells in McCoy's 5A, breast cancer SKBr3 in DMEM. […] The antibiotic G418 was added in the medium (800 ug/mL) for selection of stable dnERR transfectants. Anaerobic culture was achieved using GasPak Pouch System (BD Biosciences). The HIF-dependent reporter HRE-Luc was generated by inserting the two copies of synthetic HRE from PGK1 into a pGL3 luciferase vector. (Promega) Epo-Luc and PGK1-Luc were created by cloning the PCR-amplified HIF-dependent enhancer and promoter regions of Epo and PGK1, respectively, Full-length EST clones encoding ERR-α, -β, -γ, HIF-1α, -2α, -1β were used for in vitro translation (Promega TNT kit), production of GST fusions by cloning into the pGEX vector, and mammalian expression by cloning into modified pcDNA3 vectors with Flag or HA epitope tags. ERR Deletion mutants were generated by PCR. dnERR was constructed by PCR amplification of ERRβ DBD and Engrailed repression domain, followed by a three-way ligation into pcDNA3. Anti-Flag, -HA, -ERRα, and -HIF1α antibodies were obtained from Sigma, Covance, Upstate, and BD Biosciences and Novus, respectively.

A further data set deals with ERRγ-HIF association (Homo sapiens, UniProt P62508). The settings on record: DES (50 μM) or 4HT (10 μM); GST pulldown.
In the next data set the test system is ERRs (ERRα, ERRβ, ERRγ). The settings on record: literature (Tremblay et al, 2001; Ariazi and Jordan, 2006); cited from earlier work.
In data set [2] the test system is hypoxic genes (VEGF, PGK1, LDHA, Eno1, Glut1) in MDA-MB-435 cells. As to the kind of experiment: Northern blot of hypoxic gene expression in MDA-MB-435 breast cancer cells. It is filed as cell-based, human. The settings on record: severe hypoxia, DES (50 uM). From the text: (§1) For Northern blot analysis, nylon membranes carrying total RNA samples were hybridized with probes made from cDNA fragments encoding for VEGF, PGK1, lactate dehydrogenase A(LDHA), Enolase 1 (Eno1), and Glucose transporter 1 (Glut1). The 18s rRNA and β-actin served as loading controls.
All human cancer cells were maintained in the following basal media (Invitrogen) supplemented with 10% fetal bovine serum: breast cancer cell line MDA-MB-435 in DMEM/F12, melanoma WM266 cells in McCoy's 5A, breast cancer SKBr3 in DMEM. […] The antibiotic G418 was added in the medium (800 ug/mL) for selection of stable dnERR transfectants. Anaerobic culture was achieved using GasPak Pouch System (BD Biosciences).
All procedures followed standard molecular biology techniques. […] HIFα was not stable.
The HIF-mediated hypoxic response is defined by transcriptional activation of many hypoxic genes. We asked whether inhibition of ERR was capable of blocking hypoxic-induced transcription of endogenous genes.

Data set [3] deals with hypoxic genes (VEGF, glycolytic enzymes) in SKBR3 cells. As to the kind of experiment: Northern blot of hypoxic gene expression in SKBR3 breast cancer cells. It is filed as cell-based, human. Particulars: DP (100 uM), DES (50 uM). The text has this: For Northern blot analysis, nylon membranes carrying total RNA samples were hybridized with probes made from cDNA fragments encoding for VEGF, PGK1, lactate dehydrogenase A(LDHA), Enolase 1 (Eno1), and Glucose transporter 1 (Glut1). The 18s rRNA and β-actin served as loading controls. […] All human cancer cells were maintained in the following basal media (Invitrogen) supplemented with 10% fetal bovine serum: breast cancer cell line MDA-MB-435 in DMEM/F12, melanoma WM266 cells in McCoy's 5A, breast cancer SKBr3 in DMEM. […] The antibiotic G418 was added in the medium (800 ug/mL) for selection of stable dnERR transfectants. Anaerobic culture was achieved using GasPak Pouch System (BD Biosciences). All procedures followed standard molecular biology techniques. […] The HIF-mediated hypoxic response is defined by transcriptional activation of many hypoxic genes.

The next data set deals with HIF1α. Description: Western blot analysis for HIF1α in SKBR3 cells. It is filed as cell-based, human. The settings on record: DP and DES. The text has this:
HIF1α was detected with anti-HIF1α antibody. The same blot was reprobed with an antitubulin antibody. Tubulin served as a loading control. All procedures followed standard molecular biology techniques.

The test system of data set [4] is MDA-MB-435 breast cancer xenograft. Description: Tumor xenograft experiment, human MDA-MB-435 breast cancer cells in SCID mice. Particulars: 750 μg DES daily, oral. It is filed as in vivo. As for the experimental part:
Tumor volume was measured weekly.
Tumor xenografts were harvested at time of necropsy (after 3 weeks of treatment) and weighed. […] Scale Bars represent average tumor weight.
MDA-MB-435 cells (5×10^6) were resuspended in a mixture of 100 uL of PBS and Matrigel (BD Biosciences, Bedford, Mass.; 2:1 ratio), and injected subcutaneously into the fourth mammary gland fat pad of 6- to 8-week-old female severe combined immunodeficient (SCID) mice. […] The mice bearing tumor xenografts were randomly divided into two groups. […] Tumors were serially measured weekly with a ruler and the tumor volumes were calculated with the following formula: volume (mm^3)=width^2× length/2. After 3 weeks of treatment, the mice were euthanized. All animal studies were approved by the Institutional Animal Care and Use Committee (IACUC) at the University of Florida.
At the end of treatment, tumors were excised and analyzed.

Data set [5] deals with tumor angiogenesis in MDA-MB-435 xenograft. As to the kind of experiment: CD34 immunostaining of tumor xenografts for blood vessel density. It is filed as in vivo, mice. Particulars: 750 μg DES daily, oral, after 3 weeks of treatment. How it is done:
Tumor transplants were processed and subjected to CD34 immunostaining for blood vessels (brown staining). […] Scale bars, 65 μm. […] Microvessel density was determined by counting the number of CD34 positive blood vessels from four randomly chosen visual fields from each group of tumors. The average number in the fields was taken as the mean of vessel density of the group. Tumors were dissected at time of necropsy, weighed, and fixed in 4% paraformaldehyde in PBS overnight. Samples were dehydrated in 70% ethanol, paraffin embedded, and sectioned ([…]). Deparaffinized sections were stained for CD34 to assess blood vessel density. Briefly, samples were microwaved in sodium citrate (pH 6) for 20 min. for antigen retrieval, and treated with 3% H2O2 at room temperature for 20 min. to quench endogenous peroxidase activity. Sections were then blocked in 1.5% rabbit serum and incubated with rat anti-mouse CD34 antibody (1:100 dilution, clone MEC14.7, BioLegend), followed by biotinylated rabbit anti-rat IgG (1:200 dilution; Vector Laboratories). Detection was done with avidin-biotin-HRP complex (Vector laboratories) and di-aminobenzidin as chromogen. […] As angiogenesis is a key part of hypoxic response and is required to support tumor growth beyond a certain threshold size, we assessed tumor vascularization by performing immunohistochemical staining using anti-CD34 antibody. […]

For the next data set, the system named is pregnant female mice. The settings on record: DES 500 μg/mouse; literature (Tremblay et al, 2001); cited from earlier work.
For data set [6], the system named is hypoxic genes in A549 lung cancer cells. As to the kind of experiment: Hypoxic gene expression in A549 lung cancer cells. It is filed as cell-based, human. Particulars: A549 lung cancer cells treated with DP and RES.
From the text: as §1

“Also recorded” adds a separate entry of the source.

ERRγ-HIF association, sequence (P62508 whole entry): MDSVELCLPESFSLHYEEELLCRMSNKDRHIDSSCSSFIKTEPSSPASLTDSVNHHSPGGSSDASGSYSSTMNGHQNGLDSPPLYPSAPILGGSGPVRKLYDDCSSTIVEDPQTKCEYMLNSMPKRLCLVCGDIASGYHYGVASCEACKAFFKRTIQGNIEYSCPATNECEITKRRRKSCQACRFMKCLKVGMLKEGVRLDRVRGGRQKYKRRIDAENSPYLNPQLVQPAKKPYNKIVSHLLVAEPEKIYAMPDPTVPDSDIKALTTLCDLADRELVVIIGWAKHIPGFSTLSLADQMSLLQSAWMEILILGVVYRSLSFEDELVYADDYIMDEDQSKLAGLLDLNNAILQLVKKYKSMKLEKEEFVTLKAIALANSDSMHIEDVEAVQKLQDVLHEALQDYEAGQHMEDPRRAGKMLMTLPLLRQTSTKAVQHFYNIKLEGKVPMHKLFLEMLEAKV
ERRγ-HIF association, sequence (Q16665 whole entry partner): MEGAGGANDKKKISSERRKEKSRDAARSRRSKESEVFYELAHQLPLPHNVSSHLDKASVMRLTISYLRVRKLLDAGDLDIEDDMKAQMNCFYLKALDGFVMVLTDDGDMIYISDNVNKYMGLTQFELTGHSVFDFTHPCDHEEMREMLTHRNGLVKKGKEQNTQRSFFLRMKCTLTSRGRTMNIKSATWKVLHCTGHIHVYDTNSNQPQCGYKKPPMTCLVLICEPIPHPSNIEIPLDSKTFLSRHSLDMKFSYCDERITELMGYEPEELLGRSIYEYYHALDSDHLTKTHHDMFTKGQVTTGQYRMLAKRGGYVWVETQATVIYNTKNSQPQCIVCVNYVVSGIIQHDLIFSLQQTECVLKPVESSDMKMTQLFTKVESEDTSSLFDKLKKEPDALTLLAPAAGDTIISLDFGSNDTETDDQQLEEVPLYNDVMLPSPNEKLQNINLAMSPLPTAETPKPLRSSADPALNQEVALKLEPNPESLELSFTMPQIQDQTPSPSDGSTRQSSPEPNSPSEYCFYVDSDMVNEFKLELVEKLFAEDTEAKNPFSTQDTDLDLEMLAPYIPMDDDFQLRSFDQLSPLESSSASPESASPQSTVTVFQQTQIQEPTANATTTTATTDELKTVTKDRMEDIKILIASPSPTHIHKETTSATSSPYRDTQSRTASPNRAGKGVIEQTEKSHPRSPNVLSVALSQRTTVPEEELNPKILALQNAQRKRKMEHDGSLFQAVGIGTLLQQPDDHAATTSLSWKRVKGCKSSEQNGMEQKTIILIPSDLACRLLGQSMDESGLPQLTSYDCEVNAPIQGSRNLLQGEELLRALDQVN
ERRγ-HIF association, sequence (P27540 whole entry partner): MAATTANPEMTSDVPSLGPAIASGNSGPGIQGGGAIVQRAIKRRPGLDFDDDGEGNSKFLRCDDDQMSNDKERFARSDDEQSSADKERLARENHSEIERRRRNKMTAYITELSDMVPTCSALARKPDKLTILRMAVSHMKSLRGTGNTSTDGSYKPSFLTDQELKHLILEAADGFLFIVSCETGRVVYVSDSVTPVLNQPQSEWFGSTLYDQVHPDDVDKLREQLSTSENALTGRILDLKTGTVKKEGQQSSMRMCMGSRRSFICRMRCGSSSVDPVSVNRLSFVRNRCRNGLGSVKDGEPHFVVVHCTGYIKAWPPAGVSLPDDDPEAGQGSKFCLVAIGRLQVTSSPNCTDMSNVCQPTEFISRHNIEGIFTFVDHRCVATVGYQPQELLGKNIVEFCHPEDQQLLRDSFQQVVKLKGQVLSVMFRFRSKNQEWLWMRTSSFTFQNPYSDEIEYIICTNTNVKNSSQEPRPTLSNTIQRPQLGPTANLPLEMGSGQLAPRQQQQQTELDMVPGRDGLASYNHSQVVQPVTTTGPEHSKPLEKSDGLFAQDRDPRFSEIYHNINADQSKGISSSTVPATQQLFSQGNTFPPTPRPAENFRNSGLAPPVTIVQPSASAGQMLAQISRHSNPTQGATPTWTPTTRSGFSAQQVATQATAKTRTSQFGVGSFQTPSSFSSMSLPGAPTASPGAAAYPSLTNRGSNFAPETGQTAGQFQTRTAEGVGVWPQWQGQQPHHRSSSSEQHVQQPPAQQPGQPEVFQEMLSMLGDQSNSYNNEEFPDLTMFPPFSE
Protocol for ERRγ-HIF association: In vitro translated HIF proteins were mixed with GST or GST-ERR fusions and assayed for binding.
All procedures followed standard molecular biology techniques. […] For GST binding and IP, we used the following binding buffer (20 mM Tris, pH7.5, 150 mM NaCl, 0.5% NP-40, and protease inhibitor cocktail (Roche)). […] In later experiments, we added proteasome inhibitor MG132 (10 uM) into the buffer.
We examined whether mammalian HIF and ERR proteins interact with each other in vitro by the common glutathione S-transferase (GST) pulldown assay. We fused full-length cDNAs of ERRα, β, and γ to GST and generated fusion proteins in bacteria. We assayed them for binding to in vitro translated full-length HIF1α, HIF2α, and HIF1β.
These compounds were tested to determine whether they might interfere with the ERR-HT interaction.

With 4-hydroxytamoxifen [4HT], the “activation of the HIF-dependent reporter by DP-induced HIF stabilization” value in [1] is on record as “Lack of effects”. Also, the “effect on ERRγ-HIF association” value at ERRγ-HIF association was “resistant; also recorded: insensitive”. Moreover, the “activity on ERRs / ERR-coactivator interaction” value with ERRs (ERRα, ERRβ, ERRγ) is on record as “selectively inhibits ERRγ”.

For `CC/C(=C(/CC)c1ccc(O)cc1)c1ccc(O)cc1` [DES, diethylstilbestrol], the “activation of the HIF-dependent reporter by DP-induced HIF stabilization” value in data set [1] was “severely impaired; also recorded: attenuates HIF activity”. Besides, the “transcriptional induction of HIF target genes” value in data set [2] and in [3] was “largely abolished” in each case. In the data set with HIF1α, the “HIF1α protein stabilization by DP” value is given as “stabilized normally”. In data set [4] (3 weeks, SCID mice), the “tumor volumes and growth rate versus vehicle-treated control” value was “dramatic reduction”. Further, in data set [4] (SCID mice), the “tumor xenograft growth upon treatment” value is recorded as “essentially stopped growing”. In addition, in data set [4] (after 3 weeks of treatment), the “tumor weight at end of treatment versus vehicle-treated mice” value was “about 3 times lighter”. In addition, the “micro vascular density in tumors (CD34 positive blood vessels)” value in data set [5] is listed as “clear reduction; also recorded: few blood vessels; also recorded: reduced”. Further, the “activity on ERRs / ERR-coactivator interaction” value with ERRs (ERRα, ERRβ, ERRγ) was “antagonist of all three ERRs”. The “effect in pregnant female mice” value in the data set on pregnant female mice is given as “placental defects”.

`Oc1ccc(C=Cc2cc(O)cc(O)c2)cc1` [resveratrol]: the values for the hypoxia-induced gene transcription result in data set [6] and in data set [6] (listed as Resveratrol) were “manifested inhibitory activities” and “reduced hypoxic gene expression”, respectively. Besides, the “activity on ERRs / ERR-coactivator interaction” value in the data set on ERRs (ERRα, ERRβ, ERRγ) is “capable of dissociating coactivator complexes from all three ERRs, albeit at higher concentrations than DES”.
